Assays:
[1] = molecular target: T1, recombinant human KDM5B (Homo sapiens, UniProt Q9UGL1); assay: 14CO2 capture enzymatic assay (decarboxylation of [1-14C] αKG), KDM5B; assay type: biochemical; conditions: 10 μM [1-14C] αKG, 90 μM non-labeled αKG, 50 μM peptide substrate, 37° C., 1 hour, final 1% DMSO
T1 sequence (Q9UGL1 374-755 limits assumed): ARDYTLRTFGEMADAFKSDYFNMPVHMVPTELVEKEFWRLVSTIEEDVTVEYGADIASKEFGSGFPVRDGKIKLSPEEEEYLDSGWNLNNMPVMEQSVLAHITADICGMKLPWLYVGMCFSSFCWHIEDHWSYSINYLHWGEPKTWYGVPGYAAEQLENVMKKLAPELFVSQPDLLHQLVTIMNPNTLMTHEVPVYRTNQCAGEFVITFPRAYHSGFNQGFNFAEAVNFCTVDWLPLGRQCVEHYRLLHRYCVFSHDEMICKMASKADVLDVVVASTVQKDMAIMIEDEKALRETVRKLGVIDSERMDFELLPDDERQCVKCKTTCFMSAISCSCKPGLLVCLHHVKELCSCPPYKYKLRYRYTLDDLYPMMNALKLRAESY
Summary of the method: (§1)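 Truncated recombinant human KDM5B (H3K4me3 peptide) or KDM4A (H3K9me3 peptide), 50 μM peptide, with 10 μM [1-14C]αKG plus 90 μM unlabeled αKG, 10 μM Fe(SO4), 2 mM ascorbate in pH 7.4 HEPES, 1 h at 37 °C, 1% DMSO. Released 14CO2 trapped on Ba(OH)2 filter; IC50 by non-linear fit.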

[2] = molecular target: T2, recombinant human KDM4A (Homo sapiens, UniProt O75164); assay: 14CO2 capture enzymatic assay (decarboxylation of [1-14C] αKG), KDM4A; assay type: biochemical; conditions: 10 μM [1-14C] αKG, 90 μM non-labeled αKG, 50 μM peptide substrate, 37° C., 1 hour, final 1% DMSO
T2 construct: made in house
T2 sequence (O75164 1-359 limits assumed): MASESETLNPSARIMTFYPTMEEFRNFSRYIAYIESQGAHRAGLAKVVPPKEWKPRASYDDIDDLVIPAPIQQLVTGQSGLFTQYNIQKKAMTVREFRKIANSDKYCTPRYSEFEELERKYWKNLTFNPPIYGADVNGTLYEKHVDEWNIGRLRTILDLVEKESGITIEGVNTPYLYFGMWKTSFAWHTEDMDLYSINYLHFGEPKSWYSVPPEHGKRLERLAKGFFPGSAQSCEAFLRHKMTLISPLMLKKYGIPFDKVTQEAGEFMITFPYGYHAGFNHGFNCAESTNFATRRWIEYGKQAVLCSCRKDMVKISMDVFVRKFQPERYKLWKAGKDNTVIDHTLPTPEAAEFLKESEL
Summary of the method: as §1

With `N#Cc1cc(-c2ccccc2Cl)nc(C(=O)CCC(=O)O)c1O` [Example 70, 4-[6-(2-Chloro-phenyl)-4-cyano-3-hydroxy-pyridin-2-yl]-4-oxo-butyric acid] the IC50 [1] was 0.3 µM and the IC50 [2] was greater than 40 µM.
In the case of `COc1ccc(Oc2cc(C#N)c(O)c(C(=O)CCC(=O)O)c2)cc1` [Example 141, 4-[3-Cyano-2-hydroxy-5-(4-methoxy-phenoxy)-phenyl]-4-oxo-butyric acid], the IC50 [1] is reported as 0.25 µM and the IC50 [2] is reported as greater than 40 µM.
`Cc1cccc(C(F)(F)F)c1Cc1cc(C#N)c(O)c(C(=O)CCC(=O)O)n1` [Example 62, 4-[4-Cyano-3-hydroxy-6-(2-methyl-6-trifluoromethyl-benzyl)-pyridin-2-yl]-4-oxo-butyric acid] gave an IC50 [1] of 0.47 µM and an IC50 [2] greater than 40 µM.
`N#Cc1cc(C(F)(F)F)nc(C(=O)CCC(=O)O)c1O` [Example 35, 4-(4-Cyano-3-hydroxy-6-trifluoromethyl-pyridin-2-yl)-4-oxo-butyric acid] showed an IC50 [1] of 0.05 µM and an IC50 [2] of 12 µM.
Work on `COc1ccccc1-c1cc(C#N)c(O)c(C(=O)CCC(=O)O)n1` [Example 14, 4-[4-Cyano-3-hydroxy-6-(2-methoxy-phenyl)-pyridin-2-yl]-4-oxo-butyric acid] yielded an IC50 [1] of 0.47 µM and an IC50 [2] greater than 40 µM.
Work on `Cc1ccc(-c2cc(C#N)c(O)c(C(=O)CCC(=O)O)n2)c(Cl)c1` [Example 84, 4-[6-(2-Chloro-4-methyl-phenyl)-4-cyano-3-hydroxy-pyridin-2-yl]-4-oxo-butyric acid] yielded an IC50 [1] of 0.46 µM and an IC50 [2] greater than 40 µM.
With `Cc1ccc(F)cc1-c1cc(C#N)c(O)c(C(=O)CCC(=O)O)n1` [Example 82, 4-[4-Cyano-6-(5-fluoro-2-methyl-phenyl)-3-hydroxy-pyridin-2-yl]-4-oxo-butyric acid] the IC50 [1] was 0.35 µM and the IC50 [2] was greater than 40 µM.
Work on `N#Cc1cc(-c2ccc(-c3ccccc3)c3ccccc23)nc(C(=O)CCC(=O)O)c1O` [Example 111, 4-[4-Cyano-3-hydroxy-6-(4-phenyl-naphthalen-1-yl)-pyridin-2-yl]-4-oxo-butyric acid] yielded an IC50 [1] of 0.32 µM and an IC50 [2] greater than 40 µM.
`N#Cc1cc(Cc2c(Cl)cc(C(F)(F)F)cc2Cl)nc(C(=O)CCC(=O)O)c1O` [Example 145, 4-[4-Cyano-6-(2,6-dichloro-4-trifluoromethyl-benzyl)-3-hydroxy-pyridin-2-yl]-4-oxo-butyric acid] showed an IC50 [1] of 0.36 µM and an IC50 [2] greater than 40 µM.
`N#Cc1cc(Cc2ccc(Cl)cc2Cl)nc(C(=O)CCC(=O)O)c1O` [Example 64, 4-[4-Cyano-6-(2,4-dichloro-benzyl)-3-hydroxy-pyridin-2-yl]-4-oxo-butyric acid] gave an IC50 [1] of 0.26 µM and an IC50 [2] greater than 40 µM.
With `N#Cc1cc(Cc2c(F)cc(F)cc2F)nc(C(=O)CCC(=O)O)c1O` [Example 55, 4-[4-Cyano-3-hydroxy-6-(2,4,6-trifluoro-benzyl)-pyridin-2-yl]-4-oxo-butyric acid] the IC50 [1] was 0.22 µM and the IC50 [2] was 34 µM.
`N#Cc1cc(-c2cc(F)ccc2Cl)nc(C(=O)CCC(=O)O)c1O` [Example 108, 4-[6-(2-Chloro-5-fluoro-phenyl)-4-cyano-3-hydroxy-pyridin-2-yl]-4-oxo-butyric acid] gave an IC50 [1] of 0.27 µM and an IC50 [2] greater than 40 µM.
`N#Cc1cc(Cc2c(Cl)ccc(F)c2Cl)nc(C(=O)CCC(=O)O)c1O` [Example 149, 4-[4-Cyano-6-(2,6-dichloro-3-fluoro-benzyl)-3-hydroxy-pyridin-2-yl]-4-oxo-butyric acid] gave an IC50 [1] of 0.07 µM and an IC50 [2] of 3.7 µM.
In the case of `Cc1c(-c2cc(C#N)c(O)c(C(=O)CCC(=O)O)n2)cccc1C(F)(F)F` [Example 95, 4-[4-Cyano-3-hydroxy-6-(2-methyl-3-trifluoromethyl-phenyl)-pyridin-2-yl]-4-oxo-butyric acid], the IC50 [1] is reported as 0.35 µM and the IC50 [2] is reported as greater than 40 µM.
Compound `N#Cc1cc(-c2ccc(C(F)(F)F)cc2)nc(C(=O)CCC(=O)O)c1O` [Example 26, 4-[4-Cyano-3-hydroxy-6-(4-trifluoromethyl-phenyl)-pyridin-2-yl]-4-oxo-butyric acid] has an IC50 [1] of 0.2 µM and an IC50 [2] greater than 40 µM.
Work on `N#Cc1cc(-c2ccc(-c3ccccc3)cc2)nc(C(=O)CCC(=O)O)c1O` [Example 75, 4-(6-Biphenyl-4-yl-4-cyano-3-hydroxy-pyridin-2-yl)-4-oxo-butyric acid] yielded an IC50 [1] of 0.09 µM and an IC50 [2] of 20 µM.
For `N#Cc1cc(Cc2c(Cl)cccc2Cl)cc(C(=O)CCC(=O)O)c1O` [Example 121, 4-[3-Cyano-5-(2,6-dichloro-benzyl)-2-hydroxy-phenyl]-4-oxo-butyric acid], the IC50 [1] was 0.08 µM and the IC50 [2] was greater than 40 µM.
Work on `Cc1ccc(Oc2cc(C#N)c(O)c(C(=O)CCC(=O)O)c2)cc1` [Example 139, 4-(3-Cyano-2-hydroxy-5-p-tolyloxy-phenyl)-4-oxo-butyric acid] yielded an IC50 [1] of 0.56 µM and an IC50 [2] greater than 40 µM.
In the case of `N#Cc1cc(Cc2ccc3ccccc3c2)nc(C(=O)CCC(=O)O)c1O` [Example 24, 4-(4-Cyano-3-hydroxy-6-naphthalen-2-ylmethyl-pyridin-2-yl)-4-oxo-butyric acid], the IC50 [1] is reported as 0.52 µM and the IC50 [2] is reported as greater than 40 µM.
With `N#Cc1cc(Cc2c(Cl)cccc2C#N)nc(C(=O)CCC(=O)O)c1O` [Example 58, 4-[6-(2-Chloro-6-cyano-benzyl)-4-cyano-3-hydroxy-pyridin-2-yl]-4-oxo-butyric acid] the IC50 [1] was 0.18 µM and the IC50 [2] was 16 µM.
`N#Cc1cc(NC(=O)c2c(Cl)cccc2Cl)nc(C(=O)CCC(=O)O)c1O` [Example 128, 4-[4-Cyano-6-(2,6-dichloro-benzoylamino)-3-hydroxy-pyridin-2-yl]-4-oxo-butyric acid] was tested, and the IC50 [1] was 0.38 µM and the IC50 [2] was greater than 40 µM.
Compound `COc1ccc(Cl)c(-c2cc(C#N)c(O)c(C(=O)CCC(=O)O)n2)c1` [Example 106, 4-[6-(2-Chloro-5-methoxy-phenyl)-4-cyano-3-hydroxy-pyridin-2-yl]-4-oxo-butyric acid] has an IC50 [1] of 0.35 µM and an IC50 [2] greater than 40 µM.
In the case of `Cc1ccc(Cl)c(-c2cc(C#N)c(O)c(C(=O)CCC(=O)O)n2)c1` [Example 102, 4-[6-(2-Chloro-5-methyl-phenyl)-4-cyano-3-hydroxy-pyridin-2-yl]-4-oxo-butyric acid], the IC50 [1] is reported as 0.4 µM and the IC50 [2] is reported as greater than 40 µM.
Work on `N#Cc1cc(-c2cccc(Cl)c2)cc(C(=O)CCC(=O)O)c1O` [Example 120, 4-(3′-Chloro-5-cyano-4-hydroxy-biphenyl-3-yl)-4-oxo-butyric acid] yielded an IC50 [1] of 0.15 µM and an IC50 [2] greater than 40 µM.
With `N#Cc1cc(Cc2c(F)ccc(Cl)c2F)nc(C(=O)CCC(=O)O)c1O` [Example 56, 4-[6-(3-Chloro-2,6-difluoro-benzyl)-4-cyano-3-hydroxy-pyridin-2-yl]-4-oxo-butyric acid] the IC50 [1] was 0.29 µM and the IC50 [2] was greater than 40 µM.
`Cc1cccc(Cl)c1Cc1cc(C#N)c(O)c(C(=O)CCC(=O)O)n1` [Example 123, 4-[6-(2-Chloro-6-methyl-benzyl)-4-cyano-3-hydroxy-pyridin-2-yl]-4-oxo-butyric acid] showed an IC50 [1] of 0.12 µM and an IC50 [2] of 3 µM.
For `N#Cc1cc(F)ccc1-c1cc(C#N)c(O)c(C(=O)CCC(=O)O)n1` [Example 87, 4-[4-Cyano-6-(2-cyano-4-fluoro-phenyl)-3-hydroxy-pyridin-2-yl]-4-oxo-butyric acid], the IC50 [1] was 0.28 µM and the IC50 [2] was greater than 40 µM.
`Cc1cc(F)cc(C)c1Cc1cc(C#N)c(O)c(C(=O)CCC(=O)O)n1` [Example 151, 4-[4-Cyano-6-(4-fluoro-2,6-dimethyl-benzyl)-3-hydroxy-pyridin-2-yl]-4-oxo-butyric acid] was tested, and the IC50 [1] was 0.5 µM and the IC50 [2] was 1.5 µM.

Source: patent publication US20240002344A1, “COMPOUNDS, COMPOSITIONS AND METHODS FOR HISTONE LYSINE DEMETHYLASE INHIBITION” (FibroGen, Inc., priority 2020, published 2024)
